Values quoted from earlier work as cited in patent US20070122456A1, “Nicotine and Cocoa Powder Compositions” (priority 2001, published 2007).

Conditions: intravenous infusion; smokers and non-smokers similarly

CN1CCCC1c1cccnc1 (stereo not shown) [nicotine]
increase of resting metabolic rate: 6.5%
